The values that follow come from ChEMBL document CHEMBL5126536, “Small molecules targeting γ-secretase and their potential biological applications” (Eur J Med Chem, 2022).

Where only a bound is given, the exact number is not on record here.

Data set [1] in a line: Half life in rat. The data set is classed as ADME. As to conditions: in vivo.
Data set [2] can be described thus: Oral bioavailability in rat. As to conditions: in vivo. The data set is classed as ADME, organism-based.
The nature of data set [3]: Modulation of gamma-secretase in human H4 cells expressing APPswe mutant assessed as reduction in amyloid beta 42 by ELISA. The format is cell-based. (In an ELISA, binding on a coated surface is turned into a signal by an enzyme label.)
Data set [4] is described as follows: Inhibition of amyloid beta (unknown origin) production. Also noted: species or system Homo sapiens.
A short description of data set [5]: Inhibition of Notch cleavage in transgenic HEK293 cells. The format is cell-based. The note with it: Homo sapiens.
Data set [6] has as its system Mus musculus. Put plainly: Antialzheimer activity in Tg2576 mouse model assessed as decrease in amyloid beta 40 level at 10 mg/kg measured on day 8. Also noted: scale not given: the % may be the effect or the level left. The note with it: time 8 day. The data set is classed as functional.
The test system of data set [7] is Mus musculus. Put plainly: Antialzheimer activity in Tg2576 mouse model assessed as decrease in amyloid beta 42 level at 10 mg/kg measured on day 8. The format is functional. Also noted: scale not given: the % may be the effect or the level left. The note with it: time 8 day.
The nature of data set [8]: Inhibition of Notch in human H4 cells. The format is cell-based.
Data set [9] addresses Gamma-secretase. Put plainly: Inhibition of gamma-secretase in human H4 cells assessed as reduction in amyloid beta 42. The data set is classed as cell-based.
Data set [10] can be described thus: Metabolic stability in human liver microsomes assessed as half life. The format is ADME, Microsome.
Data set [11] deals with Gamma-secretase. The experiment in a line: Inhibition of gamma-secretase (unknown origin) assessed as inhibition of Amyloid beta 40 production by cell-free assay. The data set is classed as protein-complex assay, Homo sapiens.
The nature of data set [12]: Ratio of drug concentration in Tg2576 mouse brain to plasma at 1 to 30 mg/kg, po. The data set is classed as ADME, organism-based. As to conditions: dose 1-30 mg/kg, read-out: BPR.
Data set [13] can be described thus: Toxicity in Sprague-Dawley rat assessed as maximum tolerated dose administered orally upto 28 days consecutively. The note with it: in vivo, route po, time < 28 day.
The species named for the next data set is Homo sapiens. The experiment in a line: Selectivity ratio, ratio of IC50 for gamma-secretase (unknown origin) to IC50for Notch (unknown origin).
Data set [14] concerns the target Gamma-secretase. The experiment in a line: Inhibition of gamma-secretase (unknown origin) assessed as inhibition of Amyloid beta 42 production by cell-free assay. The data set is classed as protein-complex assay, Homo sapiens.
Data set [15] is described as follows: Inhibition of Notch (unknown origin) by cell-based assay. As to conditions: Homo sapiens.
For data set [16], the target named is Amyloid-beta precursor protein (Homo sapiens, UniProt P05067). Put plainly: Modulation of amyloid beta 42 in human H4 cells expressing APP751 incubated overnight by ELISA. The data set is classed as cell-based.
Chain of Amyloid-beta precursor protein (P05067 whole entry): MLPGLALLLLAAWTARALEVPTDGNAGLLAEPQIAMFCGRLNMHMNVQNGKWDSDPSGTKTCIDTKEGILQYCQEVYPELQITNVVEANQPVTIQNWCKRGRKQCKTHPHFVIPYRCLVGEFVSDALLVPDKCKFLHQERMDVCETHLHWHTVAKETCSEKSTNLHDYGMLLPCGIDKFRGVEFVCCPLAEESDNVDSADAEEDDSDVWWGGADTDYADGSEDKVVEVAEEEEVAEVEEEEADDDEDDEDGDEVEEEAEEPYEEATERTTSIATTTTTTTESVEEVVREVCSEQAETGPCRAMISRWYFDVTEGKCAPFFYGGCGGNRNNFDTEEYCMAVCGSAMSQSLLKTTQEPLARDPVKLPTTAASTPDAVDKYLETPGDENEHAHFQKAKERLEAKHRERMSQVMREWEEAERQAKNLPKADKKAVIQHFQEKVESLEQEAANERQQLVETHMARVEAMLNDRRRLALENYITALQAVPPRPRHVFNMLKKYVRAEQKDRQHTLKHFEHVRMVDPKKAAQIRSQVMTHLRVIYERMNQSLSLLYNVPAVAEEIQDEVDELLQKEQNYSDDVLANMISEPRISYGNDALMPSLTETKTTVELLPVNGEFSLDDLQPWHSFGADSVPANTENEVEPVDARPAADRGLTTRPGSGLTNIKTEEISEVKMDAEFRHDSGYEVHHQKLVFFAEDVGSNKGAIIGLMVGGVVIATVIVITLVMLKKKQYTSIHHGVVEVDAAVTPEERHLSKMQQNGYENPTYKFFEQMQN
Data set [17] deals with Mus musculus. The experiment in a line: Modulation of gamma secretase in hippocampus of C57BL mouse assessed as reduction in amyloid beta 42 at 3 mg/kg, po measured for 0.5 to 18 hrs by ELISA relative to control. The data set is classed as organism-based. Also noted: scale not given: the % may be the effect or the level left. The note with it: time 0.5-18 hrs.
The subject of data set [18] is Mus musculus. Put plainly: Modulation of gamma secretase in hippocampus of C57BL mouse assessed as reduction in amyloid beta 42 at 10 mg/kg, po measured for 0.5 to 18 hrs by ELISA relative to control. The data set is classed as organism-based. The note with it: filed as modulator, time 0.5-18 hrs.

What is called half-life is the time in which the quantity being followed falls by half. The term bioavailability denotes the share of a dose that reaches the circulation, judged against a reference dose that is usually intravenous. For orientation: IC50 means the concentration at which inhibition is half-maximal. In turn, `O=C(O)C1(c2ccc(-c3ccc(Cl)c(Cl)c3)c(F)c2)CC1` showed a half-life in data set [1] of 20 h. The compound further returned a bioavailability in [2] of 50%. Moreover, the IC50 in data set [3] was 3600 nM.
Take `C[C@H](NC(=O)[C@@H](O)c1cc(F)cc(F)c1)C(=O)N[C@@H]1C(=O)N(C)c2ccccc2-c2ccccc21`: the IC50 turned out to be 0.082 nM in [4] and 0.39 nM in data set [5].
Consider `CC(C)[C@H](O)C(=O)N[C@@H](C)C(=O)N[C@@H]1C(=O)N(C)CCc2ccccc21`, for which the Activity with Mus musculus [6] and in the data set with Mus musculus [7] was 22% in each case. Further, the half-maximal inhibitory concentration (IC50) in [8] was 14.1 nM; on Gamma-secretase [9], 10.9 nM.
A word on the EC50: it is the concentration giving half of the maximal effect. For orientation: MTD means the largest dose that counted as tolerated. Regarding `O=S(=O)(N[C@H](CO)C(C(F)(F)F)C(F)(F)F)c1ccc(Cl)s1` [BEGACESTAT], the half-life in data set [10] was 1.5 h. Also, the EC50 on Gamma-secretase [11] is 14.8 nM; on Gamma-secretase [14], 12.4 nM. Besides, the Kp in data set [12] was more than 1. Further, in [13], the MTD at 672 h turned out to be 2000 mg/kg/day. Moreover, the Ratio IC50 in the data set filed under Homo sapiens was 16.8.
In data set [15], `C[C@H](NC(=O)CCC(F)(F)F)C(=O)N[C@@H]1C(=O)N(CCO)c2ncccc2-c2ccccc21` had an IC50 of 0.41 nM.
`COc1nc(C2=NOC[C@H](c3cc4ccccc4o3)N2)ccc1-n1cnc(C)c1`: the response in data set [16] was half-maximal at 35 nM (EC50).
In general, inhibition refers to the relative decrease from the control value, in per cent. For `COc1cc(-c2nnc3n2CCC[C@]3(Oc2cc(F)c(F)c(F)c2)C(C)(C)O)ccc1-c1cnc(C)o1`, the Activity in the data set with Mus musculus [17] amounted to 23.2%. The inhibition with Mus musculus [18] is 46.5%.
